From PubChem BioAssay AID1963447 (Molecular Pharmacology Branch, DTP, NCI, 2024)

System: 885512-296-R-J2-PDC complex spheroid growth, % test/control
Assay: Anticancer human tumor 885512-296-R-J2-PDC patient-derived breast carcinoma cell line growth inhibition [Asc]
Settings: for IC50: curve of first compound; for viability, T/C: stronger effect = lower value; active means viability on the fitted dose curve at most 10% of control; inactive means the rest
Method: Multicellular complex tumor spheroid response to apoptosis pathway targeting inhibitors Alrizomadlin, Pelcitoclax, and Dasminapant in combination with a variety of drugs and investigational agents in selected tumor cell lines
The MDM2 inhibitor alrizomadlin, the Bcl-2/Bcl-xL inhibitor pelcitoclax, and the IAPs inhibitor dasminapant were evaluated both individually and in combination with standard of care and investigational anticancer small molecules within a complex spheroid model of solid tumors. . Complex spheroids include a stromal component modeled by human endothelial cells (HUVEC) and fibroblasts modeled by human mesenchymal stem cells (MSCs). The concentration ranges selected for each drug and investigational agent were based upon clinically achievable concentrations if the clinical Cmax of the agent was known.
Compounds. The drugs and investigational agents: alrizomadlin (APG-115; NSC831270), pelcitoclax (APG-1252; NSC835773), dasminapant (APG-1387;NSC834197), TAK-243 (NSC785004), copanlisib (NSC809693), olaparib (NSC753686), talazoparib (NSC767125), cobimetinib (NSC 768068), eltanexor (KPT-8602, NSC 794443), abemaciclib (NSC 768073), sotorasib (NSC818433), adagrasib (NSC 831453), MRTX-1133 (NSC 836407), Iadademestat (ORY1001, NSC 806812), and RMC-4630 (NSC839698), were obtained from the NCI Developmental Therapeutics Program Chemical Repository. The FDA-approved anticancer drug set is available from the Developmental Therapeutics Program at https://dtp.cancer.gov/organization/dscb/obtaining/available plates.htm. […] The stock solutions were prepared in dimethyl sulfoxide (DMSO, Sigma-Aldrich, St. Louis, MO, cat. D2650) at 800-fold the tested concentration and stored at -70 degrees C prior to their use. All drugs and investigational agents were tested over a range starting from a high concentration at or near the clinical Cmax and decreasing in half-log increments. If the clinical Cmax for an agent had not been determined, the highest concentration tested was 10 microM.
The patient-derived cancer (PDC) cell lines include five colon adenocarcinomas: 186277-243-T-J2-PDC, 616215-338-R-J1-PDC, 439559-082-T-J2-PDC, 463943-066-T-J2-PDC, and 519858-162-T-J1-PDC; three pancreatic carcinomas: 323965-272-R-J2-PDC, 521955-158-R6-J3-PDC, and 521955-158-R2-J5-PDC; two uterine sarcomas: 327498-152-R-J2-PDC and 993429-296-R-J1-PDC; two rhabdomyosarcomas: 755483-174-R-J1-PDC and 772245-204-R-J1-PDC; two soft tissue sarcomas: 126254-015-R-J1-PDC and 494315-158-R-J1-PDC; two malignant fibrous histiocytomas: 317291-083-R-J1-PDC and 596521-263-R-J1-PDC; two breast carcinomas: 171881-019-R-J1-PDC and 885512-296-R-J2-PDC; and one ovarian carcinoma: 6556581-035-R-J-PDC were obtained from the NCI PDMR, (https://pdmr.cancer.gov). The established cell lines HSSY-2 synovial sarcoma (RRID:CVCL 8719), SYO-1 synovial sarcoma (RRID:CVCL_7146), MPNST malignant peripheral neural sheath tumor were obtained from the Sloan Kettering Institute. The following established cell lines were purchased from the American Type Culture Collection (ATCC, Manassas, VA), Sor the received from the NCI repository:, PANC-1 pancreatic carcinoma (CRL-1469, RRID:CVCL_0480), OVCAR-5 ovarian carcinoma (RRID:CVCL_1628), OVCAR-8 ovarian carcinoma (RRID:CVCL_1629), , MCF-7 breast carcinoma (CRL-12584, RRID:CVCL_0031), MDA-MB-231 breast carcinoma (CRL-12532, RRID:CVCL_0062), NCI-H1876 small cell lung carcinoma (CRL-5902, RRID:CVCL_1503), NCI-H510A small cell lung carcinoma (HTB-184, RRID:CVCL_1565), NCI-H1417 (CRL-5869, RRID:CVCL_1469), and NCI-H196 small cell lung carcinoma (CRL-5823, RRID:CVCL_1509). Dr. Peter Houghton (Greehey Children's Cancer Research Institute, University of Texas Health Science Center, San Antonio, TX) provided Rh-18 rhabdomyosarcoma (RRID:CVCL_1659). Pooled donor human umbilical vein endothelial cells (HUVEC, Lonza, cat. CC-2519) and human mesenchymal stem cells (hMSC, Lonza, cat. PT-2501) were purchased from Lonza (Walkersville, MD).
Cell Culture. […]
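Further: spheroids exposed to compounds for seven days.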
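Wherever viability, T/C is given: 100% = DMSO vehicle control wells.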

O=C(c1ccc(F)c(F)c1Nc1ccc(I)cc1F)N1CC(O)([C@@H]2CCCCN2)C1 + CNC(C)C(=O)NC1CN(S(=O)(=O)c2cccc(S(=O)(=O)N3CCC4CCC(C(=O)NC(c5ccccc5)c5ccccc5)N4C(=O)C(NC(=O)C(C)NC)C3)c2)CCC2CCC(C(=O)NC(c3ccccc3)c3ccccc3)N2C1=O
112 nM: IC50 (second compound 0.1 µM)
inactive: viability, T/C (second compound 0.01 µM, first compound 0.00316 µM) 92.1% | viability, T/C (second compound 0.01 µM, first compound 0.01 µM) 80.5% | viability, T/C (second compound 0.01 µM, first compound 0.0316 µM) 59% | viability, T/C (second compound 0.01 µM, first compound 0.1 µM) 50.2% | viability, T/C (second compound 0.01 µM, first compound 0.316 µM) 37.5% | viability, T/C (second compound 0.01 µM, first compound 1 µM) 15.1% | viability, T/C (second compound 0.0316 µM, first compound 0.00316 µM) 98.3% | viability, T/C (second compound 0.0316 µM, first compound 0.01 µM) 84.3% | viability, T/C (second compound 0.0316 µM, first compound 0.0316 µM) 78% | viability, T/C (second compound 0.0316 µM, first compound 0.1 µM) 48% | viability, T/C (second compound 0.0316 µM, first compound 0.316 µM) 32% | viability, T/C (second compound 0.0316 µM, first compound 1 µM) 16.6% | viability, T/C (second compound 0.1 µM, first compound 0.00316 µM) 99.5% | viability, T/C (second compound 0.1 µM, first compound 0.01 µM) 95.8% | viability, T/C (second compound 0.1 µM, first compound 0.0316 µM) 78.6% | viability, T/C (second compound 0.1 µM, first compound 0.1 µM) 47.8% | viability, T/C (second compound 0.1 µM, first compound 0.316 µM) 35.1% | viability, T/C (second compound 0.1 µM, first compound 1 µM) 15.9% | viability, T/C (second compound 0.316 µM, first compound 0.00316 µM) 102% | viability, T/C (second compound 0.316 µM, first compound 0.01 µM) 99.5% | viability, T/C (second compound 0.316 µM, first compound 0.0316 µM) 82.5% | viability, T/C (second compound 0.316 µM, first compound 0.1 µM) 53.8% | viability, T/C (second compound 0.316 µM, first compound 0.316 µM) 31.4% | viability, T/C (second compound 0.316 µM, first compound 1 µM) 16.5% | viability, T/C (second compound 1 µM, first compound 0.00316 µM) 103% | viability, T/C (second compound 1 µM, first compound 0.01 µM) 96.2% | viability, T/C (second compound 1 µM, first compound 0.0316 µM) 89.7% | viability, T/C (second compound 1 µM, first compound 0.1 µM) 60.9% | viability, T/C (second compound 1 µM, first compound 0.316 µM) 32.8% | viability, T/C (second compound 1 µM, first compound 1 µM) 16.8%
107 nM: IC50 (second compound 0.0316 µM)
94 nM: IC50 (second compound 0.01 µM)
159 nM: IC50 (second compound 1 µM)
126 nM: IC50 (second compound 0.316 µM)
